PubChem BioAssay (NCI)
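96-well plates; 48 h exposure; 5 concentrations. Endpoints by linear interpolation between flanking doses. Not reached: highest tested concentration assigned. GI50 is the concentration that inhibits growth by half. The concentration for full growth arrest is given as TGI.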

Assays:
Test in all cases: NCI anticancer screen, dose series, 48 h
DU-145 prostate = tested on: DU-145 prostate
HCT-15 colon = tested on: HCT-15 colon
OVCAR-5 ovarian = tested on: OVCAR-5 ovarian
SNB-75 CNS = tested on: SNB-75 CNS
PC-3 prostate = tested on: PC-3 prostate
UO-31 renal = tested on: UO-31 renal
HOP-92 NSCLC = tested on: HOP-92 NSCLC
RXF 393 renal = tested on: RXF 393 renal
SK-MEL-28 melanoma = tested on: SK-MEL-28 melanoma
U251 CNS = tested on: U251 CNS
ACHN renal = tested on: ACHN renal
SF-295 CNS = tested on: SF-295 CNS
MDA-MB-435 = tested on: MDA-MB-435
HOP-62 NSCLC = tested on: HOP-62 NSCLC
UACC-257 melanoma = tested on: UACC-257 melanoma
TK-10 renal = tested on: TK-10 renal
SK-OV-3 ovarian = tested on: SK-OV-3 ovarian
MDA-MB-231 breast = tested on: MDA-MB-231 breast
BT-549 breast = tested on: BT-549 breast
CAKI-1 renal = tested on: CAKI-1 renal
M14 melanoma = tested on: M14 melanoma
786-0 renal = tested on: 786-0 renal
SK-MEL-2 melanoma = tested on: SK-MEL-2 melanoma
OVCAR-4 ovarian = tested on: OVCAR-4 ovarian
SK-MEL-5 melanoma = tested on: SK-MEL-5 melanoma
KM12 colon = tested on: KM12 colon
MOLT-4 leukemia = tested on: MOLT-4 leukemia
SF-539 CNS = tested on: SF-539 CNS
NCI-H522 lung = tested on: NCI-H522 lung
A498 renal = tested on: A498 renal
COLO 205 colon = tested on: COLO 205 colon
NCI-H226 lung = tested on: NCI-H226 lung
MALME-3M melanoma = tested on: MALME-3M melanoma
NCI-H23 lung = tested on: NCI-H23 lung
NCI/ADR-RES ovarian = tested on: NCI/ADR-RES ovarian
SW-620 colon = tested on: SW-620 colon

Compound: Clc1ccc2c(N/N=C/c3c[nH]c4ccccc34)ccnc2c1
- GI50 (DU-145 prostate): 1530 nM
- TGI (DU-145 prostate): 2930 nM
- GI50 (HCT-15 colon): 373 nM
- TGI (HCT-15 colon): 1490 nM
- GI50 (OVCAR-5 ovarian): 1630 nM
- TGI (OVCAR-5 ovarian): 3040 nM
- GI50 (SNB-75 CNS): 1380 nM
- TGI (SNB-75 CNS): 2720 nM
- GI50 (PC-3 prostate): 1550 nM
- TGI (PC-3 prostate): 2950 nM
- GI50 (UO-31 renal): 1320 nM
- TGI (UO-31 renal): 2660 nM
- GI50 (HOP-92 NSCLC): 539 nM
- TGI (HOP-92 NSCLC): 2020 nM
- GI50 (RXF 393 renal): 1470 nM
- TGI (RXF 393 renal): 2830 nM
- GI50 (SK-MEL-28 melanoma): 1810 nM
- TGI (SK-MEL-28 melanoma): 3230 nM
- GI50 (U251 CNS): 837 nM
- TGI (U251 CNS): 2110 nM
- GI50 (ACHN renal): 1870 nM
- TGI (ACHN renal): 3270 nM
- GI50 (SF-295 CNS): 1820 nM
- TGI (SF-295 CNS): 3250 nM
- GI50 (MDA-MB-435): 1750 nM
- TGI (MDA-MB-435): 3180 nM
- GI50 (HOP-62 NSCLC): 1670 nM
- TGI (HOP-62 NSCLC): 3250 nM
- GI50 (UACC-257 melanoma): 1650 nM
- TGI (UACC-257 melanoma): 3040 nM
- GI50 (TK-10 renal): 2090 nM
- TGI (TK-10 renal): 3570 nM
- GI50 (SK-OV-3 ovarian): 1670 nM
- TGI (SK-OV-3 ovarian): 3130 nM
- GI50 (MDA-MB-231 breast): 1650 nM
- TGI (MDA-MB-231 breast): 3170 nM
- GI50 (BT-549 breast): 1550 nM
- TGI (BT-549 breast): 2910 nM
- GI50 (CAKI-1 renal): 1680 nM
- TGI (CAKI-1 renal): 3100 nM
- GI50 (M14 melanoma): 1730 nM
- TGI (M14 melanoma): 3180 nM
- GI50 (786-0 renal): 1410 nM
- TGI (786-0 renal): 2770 nM
- GI50 (SK-MEL-2 melanoma): 1830 nM
- TGI (SK-MEL-2 melanoma): 3350 nM
- GI50 (OVCAR-4 ovarian): 1830 nM
- TGI (OVCAR-4 ovarian): 3630 nM
- GI50 (SK-MEL-5 melanoma): 1750 nM
- TGI (SK-MEL-5 melanoma): 3140 nM
- GI50 (KM12 colon): 1790 nM
- TGI (KM12 colon): 3330 nM
- GI50 (MOLT-4 leukemia): 1050 nM
- TGI (MOLT-4 leukemia): 3830 nM
- GI50 (SF-539 CNS): 1720 nM
- TGI (SF-539 CNS): 3120 nM
- GI50 (NCI-H522 lung): 1770 nM
- TGI (NCI-H522 lung): 3320 nM
- GI50 (A498 renal): 1510 nM
- TGI (A498 renal): 2870 nM
- GI50 (COLO 205 colon): 1790 nM
- TGI (COLO 205 colon): 3420 nM
- GI50 (NCI-H226 lung): 1880 nM
- TGI (NCI-H226 lung): 4540 nM
- GI50 (MALME-3M melanoma): 1760 nM
- TGI (MALME-3M melanoma): 3270 nM
- GI50 (NCI-H23 lung): 1620 nM
- TGI (NCI-H23 lung): 3170 nM
- GI50 (NCI/ADR-RES ovarian): 1930 nM
- TGI (NCI/ADR-RES ovarian): 4450 nM
- GI50 (SW-620 colon): 793 nM
- TGI (SW-620 colon): 2200 nM
